Each block holds one molecule with its values, some of them ahead of it.
Legend:
[1] = molecular target: T1, NtDBR (double bond reductase) (Nicotiana tabacum, UniProt Q9SLN8); assay: X-ray crystal structure (ternary complex, soak); type: binding
T1 construct: gene DBR; full-length, C-terminal His6-tag

[2] = molecular target: T1, NtDBR (double bond reductase); assay: steady-state kinetics, NADPH oxidation; substrate inhibition at pH […]; type: biochemical
[3] = molecular target: T1, NtDBR (double bond reductase); assay: steady-state kinetics, NADPH oxidation; rate at pH […]; type: biochemical
[4] = molecular target: T1, NtDBR (double bond reductase); assay: X-ray crystal structure (ternary complex, soak); some reduction in biotransformation; type: binding
[5] = molecular target: T1, NtDBR (double bond reductase); assay: X-ray crystal structure (binary complex, NADPH soak); steady-state kinetics; type: binding
[6] = molecular target: T1, NtDBR (double bond reductase); assay: steady-state kinetics, NADPH oxidation; biotransformation with GC; type: biochemical
[7] = molecular target: T1, NtDBR (double bond reductase); assay: steady-state kinetics, NADPH oxidation; kcat/Km at pH […]; type: biochemical

T1 sequence (Q9SLN8 whole entry): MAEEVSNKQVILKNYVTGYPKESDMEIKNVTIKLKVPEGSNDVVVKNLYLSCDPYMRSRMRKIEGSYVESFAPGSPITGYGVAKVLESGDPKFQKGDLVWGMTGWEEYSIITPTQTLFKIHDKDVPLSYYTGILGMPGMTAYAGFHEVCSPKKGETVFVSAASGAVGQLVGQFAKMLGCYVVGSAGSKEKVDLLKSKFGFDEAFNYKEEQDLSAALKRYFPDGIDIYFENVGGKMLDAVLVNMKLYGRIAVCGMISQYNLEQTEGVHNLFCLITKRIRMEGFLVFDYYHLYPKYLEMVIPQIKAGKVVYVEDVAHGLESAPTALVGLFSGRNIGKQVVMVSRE

Structure (SMILES): NC(=O)c1ccc[n+]([C@@H]2O[C@H](COP(=O)(O)OP(=O)(O)OC[C@H]3O[C@@H](n4cnc5c(N)ncnc54)[C@H](OP(=O)(O)O)[C@@H]3O)[C@@H](O)[C@H]2O)c1 [NADP^+]
X-ray crystal structure (ternary complex, soak) [1]: showed clear |Fo| – |Fc| electron density for the presence of NADP^+ and a second ligand in subunit A only

Ki [2]: 2600 ± 600 µM
Structure (SMILES): CCC=C(C)C=O [2a, 2-methylpentenal]

steady-state kinetics, NADPH oxidation; rate at pH 7.3 [3]: 0.87 ± 0.07 s^–1
Structure (SMILES): CCCCCC/C=C/C=O [4a, trans-2-nonenal]

Structure (SMILES): COc1cc(C=CC=O)ccc1O [9a, 4-hydroxy-3-methoxycinnamaldehyde]
X-ray crystal structure (ternary complex, soak); some reduction in biotransforma [4]: have modeled in HMCA because this was the compound soaked into the crystals

Structure (SMILES): NC(=O)C1=CN([C@@H]2O[C@H](COP(=O)(O)OP(=O)(O)OC[C@H]3O[C@@H](n4cnc5c(N)ncnc54)[C@H](OP(=O)(O)O)[C@@H]3O)[C@@H](O)[C@H]2O)C=CC1 [NADPH]
X-ray crystal structure (binary complex, NADPH soak); steady-state kinetics [5]: Both the binary and ternary crystal structures showed clear |Fo| – |Fc| electron density for the NADP(H)

Structure (SMILES): O=[N+]([O-])C1=CCCCC1 [1a, 1-nitrocyclohexene]
steady-state kinetics, NADPH oxidation; biotransformation with GC [6]: NtDBR shows a high preference for 1-nitrocyclohexene (1a) over typical LTD alkenal/one substrates

steady-state kinetics, NADPH oxidation; rate at pH 7.3 [3]: 0.52 ± 0.03 s^–1
Structure (SMILES): C=CC(=O)CCCCC [5a, 1-octen-3-one]

Structure (SMILES): O=C/C=C/c1ccccc1 [6a, trans-cinnamaldehyde]
steady-state kinetics, NADPH oxidation; kcat/Km at pH 5.4 [7]: 2.8
